Patent publication US7501410B2, “Methods of inhibiting BTK and SYK protein kinases” (Roche Palo Alto LLC, priority 2006, dated 2009)

How the values were obtained:
Ramos cells = test: Inhibition of B-cell activation, B cell FLIPR assay in Ramos cells; type: cell-based; settings: Homo sapiens, anti-IgM stimulated intracellular calcium increase
From the text: Inhibition of B-cell Activation—B Cell FLIPR Assay in Ramos Cells
The B cell FLIPR assay is a cell based functional method of determining the effect of potential inhibitors of the intracellular calcium increase from stimulation by an anti-IgM antibody. Ramos cells (human Burkitt's lymphoma cell line. ATCC-No. CRL-1596) were cultivated in Growth Media (described below). One day prior to assay, Ramos cells were resuspended in fresh growth media (same as above) and set at a concentration of 0.5×10^6/mL in tissue culture flasks. On day of assay, cells were counted and set at a concentration of 1×10^6/mL in growth media supplemented with 1 μM FLUO-3 AM(TefLabs Cat-No. 0116, prepared in anhydrous DMSO and 10% Pluronic acid) in a tissue culture flask, and incubated at 37° C. (4% CO2) for 1 h. To remove extracellular dye, cells were collected by centrifugation (5 min, 1000 rpm), resuspended in FLIPR buffer (described below) at 1×10^6 cells/mL and then dispensed into 96-well poly-D-lysine coated black/clear plates (BD Cat-No. 356692) at 1×10^5 cells per well. Test compounds at seven concentrations ranging from 100 μM to 0.03 μM were added, and allowed to incubate with cells for 30 min at RT. Ramos cell Ca^2+ signaling was stimulated by the addition of 10 μg/mL anti-IgM (Southern Biotech, Cat-No. 2020-01) and measured on a FLIPR (Molecular Devices, captures images of 96 well plates using a CCD camera with an argon laser at 480 nm excitation).
Growth Medium: RPMI 1640 medium with L-glutamine (Invitrogen, Cat-No. 61870-010), 10% Fetal Bovine Serum (FBS, Summit Biotechnology Cat-No. FP-100-05); 1 mM Sodium Pyruvate (Invitrogen Cat. No. 11360-070).
FLIPR buffer: HBSS (Invitrogen, Cat-No. 141175-079),2 mM CaCl2 (Sigma Cat-No. C-4901), HEPES (Invitrogen, Cat-No. 15630-080), 2.5 mM Probenecid (Sigma, Cat-No. P-8761), 0.1% BSA (Sigma, Cat-No. A-7906), 11 mM Glucose (Sigma, Cat-No. G-7528).
In order to achieve the highest final assay concentration of 100 μM, 24 μL of 10 mM compound stock solution (made in DMSO) is added directly to 576 μL of FLIPR buffer. The test compounds are diluted in FLIPR Buffer (using Biomek 2000 robotic pipettor) resulting in the following dilution scheme: vehicle, 1.00×10^−4 M, 1.00×10^−5, 3.16×10^−6, 1.00×10^−6, 3.16×10^−7, 1.00×10^−7, 3.16×10^−8.
Intracellular increases in calcium were reported using a max-min statistic (subtracting the resting baseline from the peak caused by addition of the stimulatory antibody using a Molecular Devices FLIPR control and statistic exporting software. The IC50 was determined using a non-linear curve fit (GraphPad Prism software). Representative results are in Table 1.

[1] = molecular target: T1, Bruton's Tyrosine Kinase (Btk) (Homo sapiens, UniProt Q06187); test: Determination of IC50 of Bruton's Tyrosine Kinase (Btk) inhibition, 33P filtration assay; type: biochemical; settings: His-tagged full-length Btk, 100 μM ATP
T1 construct: 5-10 nM Btk enzyme (His-tagged, full-length); His tag
T1 sequence (Q06187 whole entry): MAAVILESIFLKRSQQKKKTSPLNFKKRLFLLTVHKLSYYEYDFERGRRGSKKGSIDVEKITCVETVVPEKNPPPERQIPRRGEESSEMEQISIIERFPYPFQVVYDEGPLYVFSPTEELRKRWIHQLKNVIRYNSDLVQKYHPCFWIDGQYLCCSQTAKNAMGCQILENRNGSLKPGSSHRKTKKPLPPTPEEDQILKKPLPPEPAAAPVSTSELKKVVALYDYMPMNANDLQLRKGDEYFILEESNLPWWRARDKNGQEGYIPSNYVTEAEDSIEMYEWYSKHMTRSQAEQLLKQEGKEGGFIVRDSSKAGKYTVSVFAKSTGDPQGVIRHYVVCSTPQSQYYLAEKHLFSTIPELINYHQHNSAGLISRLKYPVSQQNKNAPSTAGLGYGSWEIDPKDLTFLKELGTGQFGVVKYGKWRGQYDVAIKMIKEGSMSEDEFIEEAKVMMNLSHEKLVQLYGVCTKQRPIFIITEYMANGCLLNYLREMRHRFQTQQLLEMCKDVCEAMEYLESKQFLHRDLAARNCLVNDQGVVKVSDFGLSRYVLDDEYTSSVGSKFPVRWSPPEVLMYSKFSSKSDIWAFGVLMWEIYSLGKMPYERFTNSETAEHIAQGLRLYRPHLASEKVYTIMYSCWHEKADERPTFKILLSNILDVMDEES
From the text: Determination of IC50 of Bruton's Tyrosine Kinase (Btk) Inhibition
The assay is a capture of radioactive ^33P phosphorylated product through filtration. The interactions of Btk, biotinylated SH2 peptide substrate (Src homology), and ATP lead to phosphorylation of the peptide substrate. Biotinylated product is bound streptavidin sepharose beads. All bound, radiolabeled products are detected by scintillation counter.
Plates assayed are 96-well polypropylene (Greiner) and 96-well 1.2 μm hydrophilic PVDF filter plates (Millipore). Concentrations reported here are final assay concentrations: 10-100 μM compounds in DMSO (Burdick and Jackson), 5-10 nM Btk enzyme (His-tagged, full-length), 30 μM peptide substrate (Biotin-Aca-[…]-NH2), 100 μM ATP (Sigma), 8 mM imidazole (Sigma, pH 7.2), 8 mM glycerol-2-phosphate (Sigma), 200 μM EGTA (Roche Diagnostics), 1 mM MnCl2 (Sigma), 20 mM MgCl2 (Sigma), 0.1 mg/ml BSA (Sigma), 2 mM DTT (Sigma), 1 μCi ^33P ATP (Amersham), 20% streptavidin sepharose beads (Amersham), 50 mM EDTA (Gibco), 2 M NaCl (Gibco), 2 M NaCl w/1% phosphoric acid (Gibco), microscint-20 (Perkin Elmer).
IC50 determinations are calculated from 10 data points per compound utilizing data produced from a standard 96-well plate assay template. One control compound and seven unknown inhibitors were tested on each plate and each plate was run twice. Typically, compounds were diluted in half-log starting at 100 μM and ending at 3 nM. The control compound was staurosporine. Background was counted in the absence of peptide substrate. Total activity was determined in the presence of peptide substrate. The following protocol was used to determine BTK inhibition.
1) Sample preparation: The test compounds were diluted at half-log increments in assay buffer (imidazole, glycerol-2-phosphate, EGTA, MnCl2, MgCl2, BSA).
2) Bead preparation • a.) rinse beads by centrifuging at 500 g • b.) reconstitute the beads with PBS and EDTA to produce a 20% bead slurry
3) Pre-incubate reaction mix without substrate (assay buffer, DTT, ATP, ^33P ATP) and mix with substrate (assay buffer, DTT, ATP, ^33P ATP, peptide substrate) 30° C. for 15 min.
4) To start assay, pre-incubate 10 μL BTK in enzyme buffer (imidazole, glycerol-2-phosphate, BSA) and 10 μL of test compounds for 10 min at RT.
5) Add 30 μL reaction mixture without or with substrate to BTK and compounds.
6) Incubate 50 μL total assay mix for 30 min at 30° C.
7) Transfer 40 μL of assay to 150 μL bead slurry in filter plate to stop reaction.
8) Wash filter plate after 30 min, with following steps • a. 3 ×250 μL NaCl • b. 3×250 μL NaCl containing 1% phosphoric acid • c. 1×250 μL H2O
9) Dry plate for 1 h at 65° C. or overnight at RT
10) Add 50 μL microscint-20 and count ^33P cpm on scintillation counter.
Calculate percent activity from raw data in cpm percent activity=(sample−bkg)/(total activity−bkg)×100

Cc1cc(Nc2nn(C(C)C)c(=O)c3cc(N(C)C)ccc23)n[nH]1 [Example F-6, 2-Isopropyl-4-(5-methyl-1H-pyrazol-3-ylamino)-7-dimethylamino-2H-phthalazin-1-one]
IC50 (Ramos cells): 1.13 µM | IC50 [1]: 0.468 µM
